{"source": "patent US9359311B2", "about": "“Substituted aromatic oligomers” (NEUROSCIOS GMBH, priority 2011, dated 2016)", "key": {"primary chicken neurons": {"system": "primary chicken neurons", "test": "Inhibition of Abeta 1-42 toxicity on primary chicken neurons (MTT)", "assay_type": "cell-based", "set-up": "key: No: no effect; +: minor positive effect on cell viability in the presence of aggregated Aβ 1-42; ++: medium positive effect on cell viability in the presence of aggregated Aβ 1-42; +++: strong positive effect on cell viability in the presence of aggregated Aβ 1-42", "method": "One-day-old fertilized eggs are stored under appropriate conditions until start of breeding. On embryonic day 0 eggs are transferred to the breeding incubator and under turning, kept at 37.8° C. and 55% humidity until embryonic day eight. Neurons are prepared as follows: In short, embryos are transferred to a plastic dish, and decapitated. Both brain hemispheres are removed, collected and any loose tissue removed. Hemispheres are mechanically dissociated and 4.8×10^4 cells per well (96-well plates) are seeded in a volume of 160 μl.\nAβ1-42 (MW 4514.1) was obtained from American Peptide Company as a lyophilized powder. A stock solution of 340 μM Aβ1-42 was prepared in 50 mM Tris-Buffer, 150 mM NaCl, pH7.6 according to the manufacturer's instructions. After sonication, the stock solution is diluted 1:1 with the test compounds to obtain a concentration of 170, 17 and 1.7 μM. After aggregation at 4° C. for 48 h, the solutions are sonicated again prior to application to the cells. The final concentration of Aβ1-42 applied to the primary chicken neurons is 10 μM.\nAβ1-42 aggregated together with compound for 48 hrs was applied to chicken neurons at DIV4 (days in vitro) and analyzed at DIV10 (144 hrs) and all others were applied to chicken neurons at DIV6 and analysed at DIV10 (96 hrs).\nViability of cultures is determined by the MTT assay. The MTT assay allows for the measurement of the mitochondrial dehydrogenase activity which reduces yellow MTT to dark blue formazan crystals. Since this reaction is catalyzed in living cells only this assay is used for the determination of cell viability. MTT solution is added to each well in a final concentration of 0.5 mg/ml. After 2 hours the MTT containing medium is aspired. Cells are lysed in 3% SDS and the formazan crystals are dissolved in isopropanol/HCl. Optical density is measured with a plate-reader at wavelength 570 nm. Cell survival rate is expressed as a percentage of optical density (OD) relative to control cells not treated with Aβ or compound."}, "biotinylated Aβ1-42": {"target": "T1, biotinylated Aβ1-42 (Homo sapiens, UniProt P05067)", "T1 construct": "To assure monomerisation of biotinylated Aβ1-42 (Anaspec #23523-0.5) the peptide was thoroughly monomerised; purchased Anaspec 23523-0.5", "T1 sequence (P05067 672-713 limits assumed)": "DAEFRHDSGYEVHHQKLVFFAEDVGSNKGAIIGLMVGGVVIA", "test": "Inhibition of Abeta oligomerisation (biotinylated Aβ1-42, neutravidin plate, streptavidin-HRP)", "assay_type": "biochemical", "details": "inhibition of Aβ1-42 aggregation, approximately 12 nM Aβ1-42, PBS pH 7.4, 2% DMSO, 30 min RT"}, "[1]": {"details": "Conc. 0.1 μM, 10 μM Aβ1-42 aggregated together with compound for 48 h"}, "[2]": {"details": "Conc. 1 μM, 10 μM Aβ1-42 aggregated together with compound for 48 h"}, "[3]": {"details": "Conc. 10 μM, 10 μM Aβ1-42 aggregated together with compound for 48 h"}}}
{"smiles": "Nc1c(/N=N/c2ccc(-c3ccc(/N=N/c4cc(S(=O)(=O)O)c5ccccc5c4N)cc3)cc2)cc(S(=O)(=O)O)c2ccccc12", "note": "[Congo Red, reference compound]", "values": [{"measurement": "Rescue of Abeta toxicity (MTT)", "setting": "primary chicken neurons; Conc. 5 μM, 10 μM Aβ1-42", "value": "++"}, {"measurement": "IC50", "setting": "biotinylated Aβ1-42", "value": 1580, "unit": "nM"}]}
{"smiles": "O=C(O)c1ccc(-c2cc(CCO)c(-c3ccc(-c4sc(-c5ccc(C(=O)O)s5)cc4CCO)s3)s2)s1", "note": "[Example 5, 5-(5-{5-[5-(5-Carboxythiophen-2-yl)-3-(2-hydroxyethyl)thiophen-2-yl]thiophen-2-yl}-4-(2-hydroxyethyl)thiophen-2-yl)thiophene-2-carboxylic acid]", "values": [{"measurement": "Rescue of Abeta toxicity (MTT)", "setting": "primary chicken neurons; [1]", "value": "no"}, {"measurement": "Rescue of Abeta toxicity (MTT)", "setting": "primary chicken neurons; [2]", "value": "++"}, {"measurement": "Rescue of Abeta toxicity (MTT)", "setting": "primary chicken neurons; [3]", "value": "+"}, {"measurement": "IC50", "setting": "biotinylated Aβ1-42", "value": 3980, "unit": "nM"}]}
{"smiles": "O=C(O)Cc1cc(-c2ccc(-c3cc(CC(=O)O)c(-c4ccc(C(=O)O)s4)s3)s2)sc1-c1ccc(C(=O)O)s1", "note": "[Example 6, 5-[3-(Carboxymethyl)-5-{5-[4-(carboxymethyl)-5-(5-carboxythiophen-2-yl)thiophen-2-yl]thiophen-2-yl}thiophen-2-yl]thiophene-2-carboxylic acid]", "values": [{"measurement": "Rescue of Abeta toxicity (MTT)", "setting": "primary chicken neurons; [1]", "value": "++"}, {"measurement": "Rescue of Abeta toxicity (MTT)", "setting": "primary chicken neurons; [2]", "value": "+"}, {"measurement": "Rescue of Abeta toxicity (MTT)", "setting": "primary chicken neurons; [3]", "value": "+++"}, {"measurement": "IC50", "setting": "biotinylated Aβ1-42", "value": 7940, "unit": "nM"}]}
{"smiles": "O=C(O)Cc1cc(-c2ccc(C(=O)O)cc2)sc1-c1ccc(-c2sc(-c3ccc(C(=O)O)cc3)cc2CC(=O)O)s1", "note": "[Example 9, 4-[4-(Carboxymethyl)-5-{5-[3-(carboxymethyl)-5-(4-carboxyphenyl)thiophen-2-yl]thiophen-2-yl}thiophen-2-yl]benzoic acid]", "values": [{"measurement": "Rescue of Abeta toxicity (MTT)", "setting": "primary chicken neurons; [2]", "value": "++"}, {"measurement": "Rescue of Abeta toxicity (MTT)", "setting": "primary chicken neurons; [3]", "value": "+++"}, {"measurement": "IC50", "setting": "biotinylated Aβ1-42", "value": 15800, "unit": "nM"}]}
{"smiles": "CS(=O)(=O)c1ccc(-c2cc(CC(=O)O)c(-c3ccc(-c4sc(-c5ccc(S(C)(=O)=O)cc5)cc4CC(=O)O)s3)s2)cc1", "note": "[Example 16, 2-(2-{5-[3-(Carboxymethyl)-5-(4-methanesulfonylphenyl)thiophen-2-yl]thiophen-2-yl}-5-(4-methanesulfonylphenyl)thiophen-3-yl)acetic acid]", "values": [{"measurement": "Rescue of Abeta toxicity (MTT)", "setting": "primary chicken neurons; [2]", "value": "+++"}, {"measurement": "Rescue of Abeta toxicity (MTT)", "setting": "primary chicken neurons; [3]", "value": "+++"}, {"measurement": "IC50", "setting": "biotinylated Aβ1-42", "value": 5010, "unit": "nM"}]}
{"smiles": "O=C(O)Cc1ccsc1-c1ccc(-c2sc(-c3cc(CC(=O)O)c(-c4ccc(-c5sccc5CC(=O)O)s4)s3)cc2CC(=O)O)s1", "note": "[Example 17, 2-(2-{5-[3-(Carboxymethyl)-5-[4-(carboxymethyl)-5-{5-[3-(carboxymethyl)thiophen-2-yl]thiophen-2-yl}thiophen-2-yl]thiophen-2-yl]thiophen-2-yl}thiophen-3-yl)acetic acid]", "values": [{"measurement": "Rescue of Abeta toxicity (MTT)", "setting": "primary chicken neurons; [1]", "value": "+"}, {"measurement": "Rescue of Abeta toxicity (MTT)", "setting": "primary chicken neurons; [2]", "value": "no"}, {"measurement": "Rescue of Abeta toxicity (MTT)", "setting": "primary chicken neurons; [3]", "value": "+++"}, {"measurement": "IC50", "setting": "biotinylated Aβ1-42", "value": 5010, "unit": "nM"}]}
{"smiles": "O=C(O)Cc1cc(-c2ccc(-c3ccc(C(=O)O)s3)s2)sc1-c1ccc(-c2sc(-c3ccc(-c4ccc(C(=O)O)s4)s3)cc2CC(=O)O)s1", "note": "[Example 18, 5-{5-[4-(Carboxymethyl)-5-{5-[3-(carboxymethyl)-5-[5-(5-carboxythiophen-2-yl)thiophen-2-yl]thiophen-2-yl]thiophen-2-yl}thiophen-2-yl]thiophen-2-yl}thiophene-2-carboxylic acid]", "values": [{"measurement": "Rescue of Abeta toxicity (MTT)", "setting": "primary chicken neurons; [1]", "value": "++"}, {"measurement": "Rescue of Abeta toxicity (MTT)", "setting": "primary chicken neurons; [2]", "value": "+"}, {"measurement": "Rescue of Abeta toxicity (MTT)", "setting": "primary chicken neurons; [3]", "value": "no"}, {"measurement": "IC50", "setting": "biotinylated Aβ1-42", "value": 1260, "unit": "nM"}]}
{"smiles": "O=C(O)Cc1cc(-c2ccccc2)sc1-c1ccc(-c2sc(-c3ccccc3)cc2CC(=O)O)s1", "note": "[Example 21, 2-(2-{5-[3-(Carboxymethyl)-5-phenylthiophen-2-yl]thiophen-2-yl}-5-phenylthiophen-3-yl)acetic acid]", "values": [{"measurement": "Rescue of Abeta toxicity (MTT)", "setting": "primary chicken neurons; [1]", "value": "no"}, {"measurement": "Rescue of Abeta toxicity (MTT)", "setting": "primary chicken neurons; [2]", "value": "++"}, {"measurement": "Rescue of Abeta toxicity (MTT)", "setting": "primary chicken neurons; [3]", "value": "no"}, {"measurement": "IC50", "setting": "biotinylated Aβ1-42", "value": 2510, "unit": "nM"}]}
{"smiles": "O=C(O)Cc1ccsc1-c1ccc(-c2sc(-c3ccc(-c4cc(CC(=O)O)c(-c5ccc(-c6sccc6CC(=O)O)s5)s4)cc3)cc2CC(=O)O)s1", "note": "[Example 33, 2-(2-{5-[3-(Carboxymethyl)-5-{4-[4-(carboxymethyl)-5-{5-[3-(carboxymethyl)thiophen-2-yl]thiophen-2-yl}thiophen-2-yl]phenyl}thiophen-2-yl]thiophen-2-yl}thiophen-3-yl)acetic acid]", "values": [{"measurement": "Rescue of Abeta toxicity (MTT)", "setting": "primary chicken neurons; [1]", "value": "no"}, {"measurement": "Rescue of Abeta toxicity (MTT)", "setting": "primary chicken neurons; [2]", "value": "++"}, {"measurement": "Rescue of Abeta toxicity (MTT)", "setting": "primary chicken neurons; [3]", "value": "no"}, {"measurement": "IC50", "setting": "biotinylated Aβ1-42", "value": 794, "unit": "nM"}]}
{"smiles": "O=C(O)Cc1ccsc1-c1ccc(-c2sc(-c3cccc(-c4cc(CC(=O)O)c(-c5ccc(-c6sccc6CC(=O)O)cc5)s4)c3)cc2CC(=O)O)cc1", "note": "[Example 39, 2-(5-{3-[4-(Carboxymethyl)-5-{4-[3-(carboxymethyl)thiophen-2-yl]phenyl}thiophen-2-yl]phenyl}-2-{4-[3-(carboxymethyl)thiophen-2-yl]phenyl}thiophen-3-yl)acetic acid]", "values": [{"measurement": "Rescue of Abeta toxicity (MTT)", "setting": "primary chicken neurons; [1]", "value": "+"}, {"measurement": "Rescue of Abeta toxicity (MTT)", "setting": "primary chicken neurons; [2]", "value": "+"}, {"measurement": "Rescue of Abeta toxicity (MTT)", "setting": "primary chicken neurons; [3]", "value": "no"}, {"measurement": "IC50", "setting": "biotinylated Aβ1-42", "value": 794, "unit": "nM"}]}
{"smiles": "O=C(O)Cc1ccccc1-c1cc(CC(=O)O)c(-c2ccc(-c3sc(-c4ccccc4CC(=O)O)cc3CC(=O)O)s2)s1", "note": "[Example 47, 2-(2-{5-[3-(Carboxymethyl)-5-[2-(carboxymethyl)phenyl]thiophen-2-yl]thiophen-2-yl}-5-[2-(carboxymethyl)phenyl]thiophen-3-yl)acetic acid]", "values": [{"measurement": "Rescue of Abeta toxicity (MTT)", "setting": "primary chicken neurons; [1]", "value": "+++"}, {"measurement": "Rescue of Abeta toxicity (MTT)", "setting": "primary chicken neurons; [2]", "value": "+++"}, {"measurement": "Rescue of Abeta toxicity (MTT)", "setting": "primary chicken neurons; [3]", "value": "+++"}]}
{"smiles": "CS(=O)(=O)c1ccc(-c2ccc(-c3sc(-c4cc(CC(=O)O)c(-c5ccc(-c6ccc(S(C)(=O)=O)cc6)s5)s4)cc3CC(=O)O)s2)cc1", "note": "[Example 50, 2-{5-[4-(Carboxymethyl)-5-[5-(4-methanesulfonylphenyl)thiophen-2-yl]thiophen-2-yl]-2-[5-(4-methanesulfonylphenyl)thiophen-2-yl]thiophen-3-yl}acetic acid]", "values": [{"measurement": "Rescue of Abeta toxicity (MTT)", "setting": "primary chicken neurons; [1]", "value": "no"}, {"measurement": "Rescue of Abeta toxicity (MTT)", "setting": "primary chicken neurons; [2]", "value": "+++"}, {"measurement": "Rescue of Abeta toxicity (MTT)", "setting": "primary chicken neurons; [3]", "value": "+++"}, {"measurement": "IC50", "setting": "biotinylated Aβ1-42", "value": 2510, "unit": "nM"}]}
{"smiles": "O=C(O)Cc1ccccc1-c1ccc(-c2cc(CC(=O)O)c(-c3ccc(-c4sc(-c5ccc(-c6ccccc6CC(=O)O)s5)cc4CC(=O)O)s3)s2)s1", "note": "[Example 56, 2-(2-{5-[3-(Carboxymethyl)-5-{5-[2-(carboxymethyl)phenyl]thiophen-2-yl}thiophen-2-yl]thiophen-2-yl}-5-{5-[2-(carboxymethyl)phenyl]thiophen-2-yl}thiophen-3-yl)acetic acid]", "values": [{"measurement": "Rescue of Abeta toxicity (MTT)", "setting": "primary chicken neurons; [1]", "value": "+"}, {"measurement": "Rescue of Abeta toxicity (MTT)", "setting": "primary chicken neurons; [2]", "value": "+++"}, {"measurement": "Rescue of Abeta toxicity (MTT)", "setting": "primary chicken neurons; [3]", "value": "+++"}, {"measurement": "IC50", "setting": "biotinylated Aβ1-42", "value": 3160, "unit": "nM"}]}
{"smiles": "O=C(O)Cc1cc(C(=O)c2cccs2)sc1-c1ccc(-c2sc(C(=O)c3cccs3)cc2CC(=O)O)s1", "note": "[Example 93, 2-(2-{5-[3-(carboxymethyl)-5-(thiophene-2-carbonyl)thiophen-2-yl]thiophen-2-yl}-5-(thiophene-2-carbonyl)thiophen-3-yl)acetic acid]", "values": [{"measurement": "Rescue of Abeta toxicity (MTT)", "setting": "primary chicken neurons; [1]", "value": "+"}, {"measurement": "Rescue of Abeta toxicity (MTT)", "setting": "primary chicken neurons; [2]", "value": "++"}, {"measurement": "Rescue of Abeta toxicity (MTT)", "setting": "primary chicken neurons; [3]", "value": "+++"}]}
{"smiles": "O=C(O)Cc1cc(C(=O)c2ccccc2)sc1-c1ccc(-c2sc(C(=O)c3ccccc3)cc2CC(=O)O)s1", "note": "[Example 95, 2-(5-benzoyl-2-{5-[5-benzoyl-3-(carboxymethyl)thiophen-2-yl]thiophen-2-yl}thiophen-3-yl)acetic acid]", "values": [{"measurement": "Rescue of Abeta toxicity (MTT)", "setting": "primary chicken neurons; [1]", "value": "no"}, {"measurement": "Rescue of Abeta toxicity (MTT)", "setting": "primary chicken neurons; [2]", "value": "no"}, {"measurement": "Rescue of Abeta toxicity (MTT)", "setting": "primary chicken neurons; [3]", "value": "+++"}]}
